These results are taken from patent US9908890B2, “Selective inhibitors of constitutive androstane receptor” (ST. JUDE CHILDREN'S RESEARCH HOSPITAL, priority 2014, dated 2018).

As a reminder, the IC50 is the concentration at which inhibition is half-maximal. Usually inhibition stands for the change of the read-out against control, counted positive when it falls.

The assay concerns the target T1, GST-hCAR-LBD (Homo sapiens, UniProt Q14994).
T1 construct: purchased Life Technologies (Carlsbad, Calif.) or Invitrogen (Carlsbad, Calif.)
T1 sequence (Q14994 109-352 limits assumed): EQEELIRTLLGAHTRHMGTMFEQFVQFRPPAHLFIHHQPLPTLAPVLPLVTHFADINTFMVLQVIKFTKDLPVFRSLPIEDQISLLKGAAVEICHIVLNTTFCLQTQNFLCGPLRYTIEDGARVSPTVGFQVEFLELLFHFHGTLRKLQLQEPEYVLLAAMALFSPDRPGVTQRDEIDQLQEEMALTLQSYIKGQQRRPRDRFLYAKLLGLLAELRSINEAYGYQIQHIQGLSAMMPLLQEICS
Briefly: CoAct binding inverse agonist assay (LanthaScreen TR-FRET, fluorescent PGC-1α coactivator recruitment/repression). The settings on record: for inhibition at 70 µM: 70 μM compound, 42 μM clotrimazole = 100%, DMSO = 0%, read-out: % Inhibition (70 μM). Type of assay: biochemical. The protocol:
The effect of putative CAR ligands on the recruitment or repression of PGC-1α binding to hCAR was evaluated by using a LanthaScreen TR-FRET assay according to the manufacturer's instructions. […] The final DMSO concentration was 0.7% in all assay wells. […] The % Inhibition values were then plotted for individual chemicals. When applicable, the graphic software GraphPad Prism 5.04 (GraphPad Software, La Jolla, Calif., USA) was used to fit the data into a one-site competitive-binding equation to derive IC50 values. […] The assay plates were then briefly spun down and incubated for 1 hour at room temperature (25° C.). […] The final DMSO concentration was 0.7% in all assay wells. […] The % Inhibition values were then plotted for individual chemicals. When applicable, the graphic software GraphPad Prism 5.04 (GraphPad Software, La Jolla, Calif., USA) was used to fit the data into a one-site competitive-binding equation to derive IC50 values.
A general note: TR-FRET usually uses a lanthanide donor and a delayed reading to cut background.

[1] abbreviates: read-out: IC50 (CAR inverse agonistic activity).

“And” between values parts separate entries of the source, which are not always exact repeats. Equal entries are not always repeated. Where two headings read alike, the source gives them in different places.

Regarding `O=C(Nc1ccc2c(c1)N(C(=O)Cc1cccs1)c1ccccc1CC2)OC1CCCCC1` [Compound 66], under “Table 4, read-out: IC50”, the IC50 came out at 26 nM.

With `CC(C)OC(=O)Nc1ccc2c(c1)N(C(=O)COC1CCCC1)c1ccccc1CC2` [Compound 35, isopropyl (5-(2-(cyclopentyloxy)acetyl)-10,11-dihydro-5H-dibenzo[b,f]azepin-3-yl)carbamate], the IC50 under setting [1] is 20 nM.

Take `CCNCC(=O)N1c2ccccc2CCc2ccc(N)cc21` [Compound 72]: the inhibition at 70 µM worked out at 27%.

For the molecule `CCOC(=O)Nc1ccc2c(c1)N(C(=O)CN1C(=O)C=CC1=O)c1ccccc1CC2` [Compound 15, ethyl (5-(2-(2,5-dioxo-2,5-dihydro-1H-pyrrol-1-yl)acetyl)-10,11-dihydro-5H-dibenzo[b,f]azepin-3-yl)carbamate], the inhibition at 70 µM amounted to 76%. Besides, the half-maximal inhibitory concentration (IC50) under setting [1] worked out at 39800 nM. Further, the “fold IC50 relative to chemical 13” value (relative to chemical 13) is recorded as 25 fold.

Take `CCOC(=O)Nc1ccc2c(c1)N(C(=O)CN(C(C)C)C(C)C)c1ccccc1CC2` [Compound 12, ethyl (5-(diisopropylglycyl)-10,11-dihydro-5H-dibenzo[b,f]azepin-3-yl)carbamate]: the inhibition at 70 µM amounted to 110%. Where the note is “Table 4, read-out: IC50”, the IC50 is 3050 nM. Further, where the note is “relative to chemical 1”, the “fold increase of IC50 (decrease of activity) relative to lead chemical 1 (CINPA1)” value is “more than 4 fold”.

In the case of `Clc1ccccc1C(c1ccccc1)(c1ccccc1)n1ccnc1` [Clotrimazole, reference compound], the inhibition at 42 µM (42 μM clotrimazole, positive control) stood at 100%.

For `CCOC(=O)Nc1ccc2c(c1)N(C(=O)CN(CC)CC)c1ccccc1CC2` [1 (CINPA1)], the IC50 (Table 6, CINPA1 and commercially available analogs, read-out: IC50) was 690 nM.

`CC(C)OC(=O)Nc1ccc2c(c1)N(C(=O)COC1CC1)c1ccccc1CC2` [Compound 33, isopropyl (5-(2-cyclopropoxyacetyl)-10,11-dihydro-5H-dibenzo[b,f]azepin-3-yl)carbamate]: the IC50 under setting [1] turned out to be 82 nM.

Turning to `O=C(Nc1ccc2c(c1)N(C(=O)COC1CCCC1)c1ccccc1CC2)OC1CCCCC1` [Compound 51], the IC50 (Table 4, read-out: IC50) turned out to be 65 nM.

Turning to `CCN(CC)CC(=O)N1c2ccccc2CCc2ccc(NC(=O)NC(C)(C)C)cc21` [Compound 7, 1-(tert-butyl)-3-(5-(diethylglycyl)-10,11-dihydro-5H-dibenzo[b,f]azepin-3-yl)urea], the inhibition at 70 µM worked out at 101%. Further, the half-maximal inhibitory concentration (IC50) under setting [1] came to 13000 nM.

Turning to `CCNCC(=O)N1c2ccccc2CCc2ccc(NC(=O)OCC)cc21` [Compound 24, ethyl (5-(ethylglycyl)-10,11-dihydro-5H-dibenzo[b,f]azepin-3-yl)carbamate], the inhibition at 70 µM was 88.4%. In addition, where the note is “Table 4, read-out: IC50”, the IC50 turned out to be 24500 nM. Besides, the “fold increase of IC50 (decrease of activity) relative to lead chemical 1 (CINPA1)” value (relative to chemical 1) is recorded as “over 35 fold”.

Take `CC(C)OC(=O)Nc1ccc2c(c1)N(C(=O)Cn1cccc1)c1ccccc1CC2` [Compound 26, isopropyl (5-(2-(1H-pyrrol-1-yl)acetyl)-10,11-dihydro-5H-dibenzo[b,f]azepin-3-yl)carbamate]: the IC50 under setting [1] was 21 nM and 22 nM. Further, the “fold increase of CAR inverse agonistic activity (potency) over lead chemical 1 (CINPA1)” value (relative to chemical 1) was found to be 32.8 fold.

For the molecule `O=C(Nc1ccc2c(c1)N(C(=O)Cc1ccco1)c1ccccc1CC2)OC1CCCCC1` [Compound 67], the IC50 (Table 4, read-out: IC50) came to 31 nM.

With `CC(C)OC(=O)Nc1ccc2c(c1)N(C(=O)Cc1ccco1)c1ccccc1CC2` [Compound 63], the half-maximal inhibitory concentration (IC50) (Table 4, read-out: IC50) was 37 nM.

Turning to `CC(C)OC(=O)Nc1ccc2c(c1)N(C(=O)OC1CCCC1)c1ccccc1CC2` [Compound 56], under “Table 4, read-out: IC50”, the IC50 was determined as 16 nM.

Turning to `CC(C)OCC(=O)N1c2ccccc2CCc2ccc(NC(=O)OC(C)C)cc21` [Compound 30, isopropyl (5-(2-isopropoxyacetyl)-10,11-dihydro-5H-dibenzo[b,f]azepin-3-yl)carbamate], the IC50 under setting [1] was 60 nM.

Take `O=C(Cn1cccc1)N1c2ccccc2CCc2ccc(NC(=O)n3cccc3)cc21` [Compound 46]: where the note is “Table 4, read-out: IC50”, the IC50 was found to be 81 nM.
